The source made the active and inactive calls. No cut-off for these calls is given here.
How the values were obtained:
Cannabinoid receptor 1 [1] = target: T1, Cannabinoid receptor 1 (Homo sapiens, UniProt P21554); assay: Agonist activity at human recombinant cannabinoid CB1 receptor expressed in MMY23 Saccharomyces cerevisiae assessed as degradation of FDGlu to fluorescein after 24 hrs by spectrofluorimetry; assay type: functional
Cannabinoid receptor 1 [2] = target: T1, Cannabinoid receptor 1; assay: Agonist activity at human recombinant cannabinoid CB1 receptor expressed in MMY23 Saccharomyces cerevisiae assessed as degradation of FDGlu to fluorescein at 30 uM after 24 hrs by spectrofluorimetry; assay type: functional
Cannabinoid receptor 1 [3] = target: T1, Cannabinoid receptor 1; assay: Agonist activity at human recombinant cannabinoid CB1 receptor expressed in MMY23 Saccharomyces cerevisiae assessed as degradation of FDGlu to fluorescein after 24 hrs by spectrofluorimetry relative to HU210; assay type: functional
Cannabinoid receptor 2 [4] = target: T2, Cannabinoid receptor 2 (Homo sapiens, UniProt P34972); assay: Agonist activity at human recombinant cannabinoid CB2 receptor expressed in MMY23 Saccharomyces cerevisiae assessed as degradation of FDGlu to fluorescein after 24 hrs by spectrofluorimetry relative to HU210; assay type: functional
T2 sequence (P34972 whole entry): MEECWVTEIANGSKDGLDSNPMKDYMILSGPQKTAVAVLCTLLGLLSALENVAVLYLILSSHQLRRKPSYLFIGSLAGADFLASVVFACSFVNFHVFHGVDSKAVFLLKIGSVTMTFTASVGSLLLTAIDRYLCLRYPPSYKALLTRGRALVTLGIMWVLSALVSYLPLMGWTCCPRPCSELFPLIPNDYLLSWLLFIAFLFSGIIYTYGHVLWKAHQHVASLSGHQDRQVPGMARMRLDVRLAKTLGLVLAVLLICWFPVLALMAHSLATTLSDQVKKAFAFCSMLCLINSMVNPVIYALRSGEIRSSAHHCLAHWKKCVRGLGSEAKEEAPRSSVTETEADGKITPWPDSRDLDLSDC

Cannabinoid receptor 2 [5] = target: T2, Cannabinoid receptor 2; assay: Agonist activity at human recombinant cannabinoid CB2 receptor expressed in MMY23 Saccharomyces cerevisiae assessed as degradation of FDGlu to fluorescein after 24 hrs by spectrofluorimetry; assay type: functional
Homo sapiens = species on record: Homo sapiens; assay: Selectivity ratio of EC50 for human recombinant cannabinoid CB1 receptor to EC50 for human recombinant cannabinoid CB2 receptor
Rattus norvegicus [6] = assay: Analgesic activity in rat joint model of chronic pain at 5 mg/kg, po BID for 5 days; assay type: functional, organism-based; design: dose 5 mg/kg
[7] = Efflux ratio of apparent permeability […] side of MDR1-expressing MDCK2 cells after 60 mins by liquid scintillation counting; assay type: ADME, cell-based, Canis lupus familiaris; settings: dog, mdck-ii, 1 h
Rattus norvegicus [8] = assay: Induction of hypothermia in rat at 130 mg/kg, po after 5 hrs; assay type: organism-based; design: dose 130 mg/kg, route oral; settings: in vivo
[9] = target: Alpha-2A adrenergic receptor (Homo sapiens) (UniProt P08913); assay: Binding affinity to adrenergic alpha2 receptor at 1 uM
Cannabinoid receptor 1 [10] = target: Cannabinoid receptor 1 (Rattus norvegicus, UniProt P20272); assay: Agonist activity at cannabinoid CB1 receptor at rat cerebellum by GTPgammaS binding assay; assay type: functional, tissue-based
[11] = target: C-X-C chemokine receptor type 2 (Homo sapiens) (UniProt P25025); assay: Binding affinity to human CXCR2 receptor at 1 uM
[12] = target: Melatonin receptor type 1A (Homo sapiens) (UniProt P48039); assay: Binding affinity to human ML1 receptor at 1 uM
Sequence of Melatonin receptor type 1A (Homo sapiens) (P48039 whole entry): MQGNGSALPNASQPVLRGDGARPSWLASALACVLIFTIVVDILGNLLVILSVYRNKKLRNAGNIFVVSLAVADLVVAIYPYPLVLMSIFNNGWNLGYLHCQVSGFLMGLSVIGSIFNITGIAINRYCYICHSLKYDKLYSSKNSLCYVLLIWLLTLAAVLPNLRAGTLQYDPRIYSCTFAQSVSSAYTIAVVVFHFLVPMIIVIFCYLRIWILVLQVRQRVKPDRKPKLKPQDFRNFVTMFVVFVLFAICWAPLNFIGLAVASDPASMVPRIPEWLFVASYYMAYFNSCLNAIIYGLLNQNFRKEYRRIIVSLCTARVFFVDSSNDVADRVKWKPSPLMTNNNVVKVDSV

[13] = Binding affinity to central benzodiazepine receptor at 1 uM
[14] = Binding affinity to adrenergic alpha1 receptor at 1 uM
[15] = target: D(2) dopamine receptor (Homo sapiens) (UniProt P14416); assay: Binding affinity to human dopamine D2S receptor at 1 uM
Sequence of D(2) dopamine receptor (Homo sapiens) (P14416 whole entry): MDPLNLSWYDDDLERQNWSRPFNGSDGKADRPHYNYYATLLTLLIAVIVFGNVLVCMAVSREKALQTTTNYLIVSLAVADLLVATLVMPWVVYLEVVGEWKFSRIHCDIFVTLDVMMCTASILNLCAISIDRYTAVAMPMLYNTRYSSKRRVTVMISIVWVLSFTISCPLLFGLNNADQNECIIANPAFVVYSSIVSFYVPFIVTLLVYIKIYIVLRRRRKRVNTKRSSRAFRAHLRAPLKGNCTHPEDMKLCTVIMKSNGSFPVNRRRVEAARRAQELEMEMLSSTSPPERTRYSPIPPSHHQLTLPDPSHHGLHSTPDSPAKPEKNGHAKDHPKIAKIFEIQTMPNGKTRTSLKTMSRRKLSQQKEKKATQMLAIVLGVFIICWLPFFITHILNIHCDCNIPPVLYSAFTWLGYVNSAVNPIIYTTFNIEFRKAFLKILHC

[16] = Drug level in rat blood at 130 mg/kg, po after 1 hr; assay type: ADME, organism-based; design: dose 130 mg/kg, route oral; settings: read-out: Drug uptake
[17] = target: Type-1 angiotensin II receptor (Homo sapiens) (UniProt P30556); assay: Binding affinity to human AT1 receptor at 1 uM
Sequence of Type-1 angiotensin II receptor (Homo sapiens) (P30556 whole entry): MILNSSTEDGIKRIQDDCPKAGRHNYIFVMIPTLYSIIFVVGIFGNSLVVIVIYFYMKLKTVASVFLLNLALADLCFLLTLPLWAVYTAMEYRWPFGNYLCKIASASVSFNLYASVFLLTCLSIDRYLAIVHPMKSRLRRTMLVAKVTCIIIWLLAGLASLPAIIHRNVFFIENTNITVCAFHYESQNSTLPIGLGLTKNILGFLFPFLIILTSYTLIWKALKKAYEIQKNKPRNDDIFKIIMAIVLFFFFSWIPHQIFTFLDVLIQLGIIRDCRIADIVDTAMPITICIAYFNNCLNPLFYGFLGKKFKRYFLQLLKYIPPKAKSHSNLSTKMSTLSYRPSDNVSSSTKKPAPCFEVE

[18] = target: Muscarinic acetylcholine receptor M4 (Homo sapiens) (UniProt P08173); assay: Binding affinity to human muscarinic M4 receptor at 1 uM
Sequence of Muscarinic acetylcholine receptor M4 (Homo sapiens) (P08173 whole entry): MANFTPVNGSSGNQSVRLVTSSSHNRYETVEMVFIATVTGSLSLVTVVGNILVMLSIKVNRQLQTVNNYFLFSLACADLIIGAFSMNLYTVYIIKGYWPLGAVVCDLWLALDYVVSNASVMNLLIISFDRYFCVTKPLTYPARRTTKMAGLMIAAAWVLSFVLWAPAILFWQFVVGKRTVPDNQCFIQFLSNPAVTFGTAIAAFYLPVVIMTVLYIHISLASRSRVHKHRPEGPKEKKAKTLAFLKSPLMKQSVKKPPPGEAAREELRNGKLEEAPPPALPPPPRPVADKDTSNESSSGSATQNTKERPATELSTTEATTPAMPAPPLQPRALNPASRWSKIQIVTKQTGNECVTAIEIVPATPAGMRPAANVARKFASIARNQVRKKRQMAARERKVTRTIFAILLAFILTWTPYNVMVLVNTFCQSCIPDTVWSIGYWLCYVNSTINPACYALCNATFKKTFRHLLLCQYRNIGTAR

Rattus norvegicus [19] = assay: Induction of hypothermia in rat at 130 mg/kg, po after 1 to 3 hrs; assay type: organism-based; design: dose 130 mg/kg, route oral; settings: in vivo
[20] = target: B2 bradykinin receptor (Homo sapiens) (UniProt P30411); assay: Binding affinity to human bradykinin B2 receptor at 1 uM
[21] = target: Histamine H2 receptor (Homo sapiens) (UniProt P25021); assay: Binding affinity to human histamine H2 receptor at 1 uM
[22] = target: Substance-K receptor (Homo sapiens) (UniProt P21452); assay: Binding affinity to human NK2 receptor at 1 uM
Sequence of Substance-K receptor (Homo sapiens) (P21452 whole entry): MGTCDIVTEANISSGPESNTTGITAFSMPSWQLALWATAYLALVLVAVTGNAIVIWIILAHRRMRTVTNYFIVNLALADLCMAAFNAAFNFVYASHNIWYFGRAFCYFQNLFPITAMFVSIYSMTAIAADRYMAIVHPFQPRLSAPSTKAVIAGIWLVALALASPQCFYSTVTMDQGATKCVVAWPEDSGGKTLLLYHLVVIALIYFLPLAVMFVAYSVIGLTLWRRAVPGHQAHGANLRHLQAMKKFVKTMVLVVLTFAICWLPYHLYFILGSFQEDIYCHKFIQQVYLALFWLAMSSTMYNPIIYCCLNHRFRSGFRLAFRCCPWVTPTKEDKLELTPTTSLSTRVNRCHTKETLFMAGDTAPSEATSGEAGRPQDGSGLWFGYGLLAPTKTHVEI

[23] = target: Adenosine receptor A2a (Homo sapiens) (UniProt P29274); assay: Binding affinity to human adenosine A2A receptor at 1 uM
[24] = target: Muscarinic acetylcholine receptor M1 (Homo sapiens) (UniProt P11229); assay: Binding affinity to human muscarinic M1 receptor at 1 uM
[25] = target: Muscarinic acetylcholine receptor M2 (Homo sapiens) (UniProt P08172); assay: Binding affinity to human muscarinic M2 receptor at 1 uM
[26] = target: Histamine H1 receptor (Homo sapiens) (UniProt P35367); assay: Binding affinity to human histamine H1 receptor at 1 uM
Sequence of Histamine H1 receptor (Homo sapiens) (P35367 whole entry): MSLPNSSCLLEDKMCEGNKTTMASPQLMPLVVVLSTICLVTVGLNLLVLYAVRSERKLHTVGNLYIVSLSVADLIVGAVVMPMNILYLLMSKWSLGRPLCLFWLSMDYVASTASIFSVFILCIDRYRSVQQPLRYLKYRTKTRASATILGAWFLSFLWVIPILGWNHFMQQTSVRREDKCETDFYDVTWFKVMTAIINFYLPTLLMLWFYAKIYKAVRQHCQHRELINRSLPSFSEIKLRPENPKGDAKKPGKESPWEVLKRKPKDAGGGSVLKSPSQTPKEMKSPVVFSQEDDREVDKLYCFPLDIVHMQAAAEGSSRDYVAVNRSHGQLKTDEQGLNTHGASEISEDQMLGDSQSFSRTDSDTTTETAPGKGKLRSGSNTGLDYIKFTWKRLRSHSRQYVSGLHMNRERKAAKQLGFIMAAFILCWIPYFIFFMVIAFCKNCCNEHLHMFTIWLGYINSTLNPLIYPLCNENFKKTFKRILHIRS

[27] = target: Cholecystokinin receptor type A (Homo sapiens) (UniProt P32238); assay: Binding affinity to human CCKA receptor at 1 uM
Sequence of Cholecystokinin receptor type A (Homo sapiens) (P32238 whole entry): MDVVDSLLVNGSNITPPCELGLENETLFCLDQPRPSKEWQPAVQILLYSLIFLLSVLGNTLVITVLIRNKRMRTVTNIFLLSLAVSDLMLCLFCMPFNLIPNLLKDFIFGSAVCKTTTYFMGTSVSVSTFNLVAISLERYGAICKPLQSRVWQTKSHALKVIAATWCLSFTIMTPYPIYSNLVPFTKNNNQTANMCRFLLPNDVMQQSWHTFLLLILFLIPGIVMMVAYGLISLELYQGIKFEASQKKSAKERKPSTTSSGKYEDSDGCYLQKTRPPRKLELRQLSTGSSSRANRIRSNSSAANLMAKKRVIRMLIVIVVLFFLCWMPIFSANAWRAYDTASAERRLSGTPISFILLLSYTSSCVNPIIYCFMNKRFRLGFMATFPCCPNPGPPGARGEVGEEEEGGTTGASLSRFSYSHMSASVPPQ

[28] = Drug level in rat blood at 130 mg/kg, po after 3 hrs; assay type: ADME, organism-based; design: dose 130 mg/kg, route oral; settings: read-out: Drug uptake
[29] = target: Endothelin-1 receptor (Homo sapiens) (UniProt P25101); assay: Binding affinity to human ETA receptor at 1 uM
[30] = target: D(1A) dopamine receptor (Homo sapiens) (UniProt P21728); assay: Binding affinity to human dopamine D1 receptor at 1 uM
[31] = target: Cannabinoid receptor 1 (Rattus norvegicus) (UniProt P20272); assay: Agonist activity at cannabinoid CB1 receptor at rat cerebellum by GTPgammaS binding assay relative to HU210; assay type: functional
[32] = target: Melanocortin receptor 4 (Homo sapiens) (UniProt P32245); assay: Binding affinity to human MC4 receptor at 1 uM
[33] = Binding affinity to GABA receptor at 1 uM
[34] = target: Adenosine receptor A1 (Homo sapiens) (UniProt P30542); assay: Binding affinity to human adenosine A1 receptor at 1 uM
[35] = target: Galanin receptor type 2 (Homo sapiens) (UniProt O43603); assay: Binding affinity to human GAL2 receptor at 1 uM
Sequence of Galanin receptor type 2 (Homo sapiens) (O43603 whole entry): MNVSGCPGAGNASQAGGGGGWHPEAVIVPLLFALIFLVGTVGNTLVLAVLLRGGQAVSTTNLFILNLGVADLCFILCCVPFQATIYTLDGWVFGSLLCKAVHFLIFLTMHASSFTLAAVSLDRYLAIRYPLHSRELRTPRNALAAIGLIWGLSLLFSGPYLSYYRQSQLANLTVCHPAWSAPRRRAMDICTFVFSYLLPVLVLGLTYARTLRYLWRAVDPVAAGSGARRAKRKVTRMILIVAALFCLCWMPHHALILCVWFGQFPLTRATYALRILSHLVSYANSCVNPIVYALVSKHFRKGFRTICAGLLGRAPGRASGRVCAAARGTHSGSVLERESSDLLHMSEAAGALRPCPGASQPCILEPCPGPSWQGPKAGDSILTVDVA

[36] = target: Beta-1 adrenergic receptor (Homo sapiens) (UniProt P08588); assay: Binding affinity to human beta-1 adrenergic receptor at 1 uM
[37] = target: Muscarinic acetylcholine receptor M3 (Homo sapiens) (UniProt P20309); assay: Binding affinity to human muscarinic M3 receptor at 1 uM
Sequence of Muscarinic acetylcholine receptor M3 (Homo sapiens) (P20309 whole entry, looked up): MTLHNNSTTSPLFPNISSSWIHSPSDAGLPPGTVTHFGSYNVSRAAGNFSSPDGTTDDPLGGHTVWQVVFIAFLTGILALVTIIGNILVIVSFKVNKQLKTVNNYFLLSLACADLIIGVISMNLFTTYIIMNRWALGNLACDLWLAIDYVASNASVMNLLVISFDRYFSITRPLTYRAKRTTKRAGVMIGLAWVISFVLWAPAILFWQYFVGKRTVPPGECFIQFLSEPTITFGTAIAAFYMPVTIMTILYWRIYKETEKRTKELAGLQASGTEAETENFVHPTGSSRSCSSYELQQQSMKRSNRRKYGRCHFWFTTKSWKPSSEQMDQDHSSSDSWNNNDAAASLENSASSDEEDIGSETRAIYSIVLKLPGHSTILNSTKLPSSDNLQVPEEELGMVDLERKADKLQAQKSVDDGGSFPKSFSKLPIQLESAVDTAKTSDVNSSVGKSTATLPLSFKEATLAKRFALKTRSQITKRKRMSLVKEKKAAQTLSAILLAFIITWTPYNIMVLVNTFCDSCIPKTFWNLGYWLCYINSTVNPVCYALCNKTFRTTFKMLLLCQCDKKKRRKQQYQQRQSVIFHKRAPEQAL

[38] = target: Adenosine receptor A3 (Homo sapiens) (UniProt P0DMS8); assay: Binding affinity to human adenosine A3 receptor at 1 uM

T1 sequence (P21554 whole entry): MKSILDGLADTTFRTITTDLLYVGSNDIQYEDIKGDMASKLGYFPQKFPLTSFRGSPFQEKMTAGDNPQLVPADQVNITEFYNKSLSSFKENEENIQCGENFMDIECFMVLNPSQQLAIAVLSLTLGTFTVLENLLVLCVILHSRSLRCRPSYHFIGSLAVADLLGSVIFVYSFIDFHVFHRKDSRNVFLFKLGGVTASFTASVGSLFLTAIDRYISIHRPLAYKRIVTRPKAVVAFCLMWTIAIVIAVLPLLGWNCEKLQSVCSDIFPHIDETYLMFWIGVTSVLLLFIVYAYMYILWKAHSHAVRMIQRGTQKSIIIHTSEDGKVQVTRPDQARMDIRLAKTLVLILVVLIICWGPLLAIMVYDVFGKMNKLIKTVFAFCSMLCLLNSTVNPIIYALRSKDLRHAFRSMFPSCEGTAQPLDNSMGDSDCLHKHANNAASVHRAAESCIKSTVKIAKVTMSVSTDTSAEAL

SMILES: Cc1c[nH]c2c(Nc3ccccc3Cl)ncc(C(=O)N3CCOCC3)c12
- EC50 (Cannabinoid receptor 1 [1]): 15800 nM
- Activity (Cannabinoid receptor 1 [2]): inactive
- Efficacy (Cannabinoid receptor 1 [3]): 56%
- Efficacy (Cannabinoid receptor 2 [4]): 82%
- EC50 (Cannabinoid receptor 2 [5]): 123 nM
- Ratio EC50 (Homo sapiens): > 100

SMILES: Cc1c[nH]c2c(Nc3cccc(Cl)c3)ncc(C(=O)NCC3CCOCC3)c12
- EC50 (Cannabinoid receptor 1 [1]): > 30000 nM
- Efficacy (Cannabinoid receptor 2 [4]): 95%
- EC50 (Cannabinoid receptor 2 [5]): 265 nM

SMILES: Cc1c[nH]c2c(Nc3cccc(Cl)c3)ncc(C(=O)N3CCCCC3)c12
- EC50 (Cannabinoid receptor 1 [1]): 4000 nM
- Efficacy (Cannabinoid receptor 1 [3]): 32%
- Efficacy (Cannabinoid receptor 2 [4]): 73%
- EC50 (Cannabinoid receptor 2 [5]): 14 nM

SMILES: Cc1c[nH]c2c(Nc3cccc(Br)c3)ncc(C(=O)N3CCOCC3)c12
- EC50 (Cannabinoid receptor 1 [1]): 6300 nM
- Efficacy (Cannabinoid receptor 1 [3]): 43%
- Efficacy (Cannabinoid receptor 2 [4]): 78%
- EC50 (Cannabinoid receptor 2 [5]): 10 nM

SMILES: Cc1c[nH]c2c(Nc3ccccc3OC(C)C)ncc(C(=O)N3CCOCC3)c12
- EC50 (Cannabinoid receptor 1 [1]): > 30000 nM
- Activity (Cannabinoid receptor 1 [2]): inactive
- Efficacy (Cannabinoid receptor 2 [4]): 73%
- EC50 (Cannabinoid receptor 2 [5]): 188 nM
- Ratio EC50 (Homo sapiens): > 100

SMILES: CS(=O)(=O)c1ccc(C2=C(c3ccccc3)C(=O)OC2)cc1 [ROFECOXIB]
- Activity (Rattus norvegicus [6]): Active
- Ratio [7]: 74

SMILES: CCCCCCC(C)(C)c1cc(O)c2c(c1)OC(C)(C)[C@@H]1CC=C(CO)C[C@@H]21
- EC50 (Cannabinoid receptor 1 [1]): 40 nM

SMILES: CCC(CC)Nc1ncc(C(=O)N2CCOCC2)c2c(C)c[nH]c12
- EC50 (Cannabinoid receptor 1 [1]): > 30000 nM
- Efficacy (Cannabinoid receptor 2 [4]): 59%
- EC50 (Cannabinoid receptor 2 [5]): 4670 nM

SMILES: Cc1c[nH]c2c(NC3CCOCC3)ncc(C(=O)N3CCOCC3)c12
- EC50 (Cannabinoid receptor 1 [1]): > 30000 nM
- Efficacy (Cannabinoid receptor 2 [4]): 84%
- EC50 (Cannabinoid receptor 2 [5]): 3300 nM

SMILES: Cn1ccc2c(Nc3cccc(Cl)c3)ncc(Br)c21
- Activity (Rattus norvegicus [8]): Toxic
- Activity [9]: 25%
- EC50 (Cannabinoid receptor 1 [10]): 2510 nM
- Activity [11]: < 10%
- Activity [12]: < 10%
- Activity [13]: < 10%
- Activity [14]: < 10%
- Activity [15]: < 10%
- concentration at 1 h [16]: 10.9 µM
- Activity [17]: < 10%
- Activity [18]: < 10%
- Activity (Rattus norvegicus [19]): Non-toxic
- Activity [20]: < 10%
- Activity [21]: < 10%
- Activity [22]: < 10%
- Activity [23]: < 10%
- Activity [24]: < 10%
- Activity [25]: < 10%
- Activity [26]: < 10%
- Activity [27]: < 10%
- concentration at 3 h [28]: 14.7 µM
- Activity [29]: < 10%
- Activity [30]: < 10%
- Efficacy [31]: 59%
- Activity [32]: < 10%
- Activity [33]: < 10%
- Activity [34]: < 10%
- Activity [35]: < 10%
- Activity [36]: < 10%
- Activity [37]: < 10%
- Activity [38]: < 10%

SMILES: Cc1cn(C)c2c(Nc3cccc(Cl)c3)ncc(C(=O)N3CCOCC3)c12
- EC50 (Cannabinoid receptor 1 [1]): 10000 nM
- Efficacy (Cannabinoid receptor 1 [3]): 45%
- Efficacy (Cannabinoid receptor 2 [4]): 47%
- EC50 (Cannabinoid receptor 2 [5]): 654 nM
